Where “and” joins values, the source holds several entries; their conditions need not be identical. Equal entries are not always repeated. Entries after “also recorded” stand apart in the source; their conditions may differ.
Legend:
[1] = system: patients with retinal detachment at high risk for proliferative vitreoretinopathy (PVR); experiment: Pilot study of multiple intravitreal methotrexate injections after PPV in eyes at high risk for PVR; format: in vivo, human; parameters: IOP at last follow up / Final IOP: unit not given here
From the text: We hypothesized that the administration of multiple, intravitreal methotrexate injections into eyes with high-risk features for post-operative proliferative vitreoretinopathy (PVR) development will have improved visual outcomes, higher anatomic final reattachment rates, decreased reoperation rates, and decreased occurrence of PVR at 4 months postoperatively.
We have performed a small pilot study in 10 patients with retinal detachment whom had high-risk clinical factors for developing PVR.
Patients 18 years to 89 years old of both genders were eligible for this study if they required pars plana vitrectomy (PPV) for rhegmatagenous retinal detachment secondary to trauma, PPV for preexisting proliferative vitreoretinopathy grade C or higher, or if they had retinal detachments requiring PPV for other indications associated with high risk condition for PVR development, i.e.: giant retinal tears (Giant retinal tears are defined as tears involving 90° or more of the circumference of the globe), retinal breaks larger than 3 disc areas, long-standing retinal detachments, detachments associated with hemorrhage.
The PPV was performed under local or general anesthesia using three, 23 or 20 gauge sclerotomy ports. Any present epiretinal membranes were dissected using a membrane pick and/or forceps. Intraoperative tissue staining, perfluorocarbons, cryopexy, endolaser, scleral buckling, and lensectomy were performed as needed. Either silicone oil or gas was used as the tamponading agent.
Routine post-operative visits, which involve a dilated funduscopic examination, occurred on post-operative day 1, 7, month 1, month 2, and month 3.
In addition to receiving the above-described standard of care, patients received multiple intravitreal methotrexate injections during their post-operative period. The first injection was administered intraoperatively and subsequently was injected on post-op week 1,2,3,4,5,6,7,8 and on post-op month 3, for a total of 10 injections. Intravitreal methotrexate injections were performed aseptically after the topical application of anaesthesia and 5% povidone iodine to the conjunctival sac. Each patient received an intravitreal injection of 400 mcg/0.1 ml methotrexate, 3.0 to 3.5 mm posterior to the limbus, depending on lens status, with a 30-gauge needle.
After injection, patients were monitored for adverse events, including a full-dilated funduscopic examination.

[2] = system: human proliferative vitreoretinopathy (PVR) cells; experiment: Growth of human PVR cells in culture; format: cell-based; conditions: for Growth of PVR cells versus control: methotrexate 400, 200, 100 (micrograms, μM), 30,000 cells per well
Experimental: The cells were treated with 100 μM, 200 μM, or 400 μM Methotrexate (MTX) as indicated, and the images were taken after 72 hours (2A), 1 week (2B) or 2 weeks (2C).
We hypothesized that methotrexate would inhibit human proliferative vitreoretinopathy (PVR) cells in culture. PVR membranectomy was performed in patients undergoing retinal detachment repair secondary to PVR. Using cellular separation techniques, cellular constituents of the PVR membranes were separated from the extracellular matrix membranes. 30,000 cells per well were placed into a standard 12 welled plate. All 12 wells received endothelial cell growth medium with supplemental growth factors. Four arms were designated consisting of three wells each. The first arm served as a control receiving the standard growth medium but no other intervention. The remaining wells were designated as treatment arms. The second arm of three wells served as the first treatment arm and exposed the cells to 400 micrograms of methotrexate. The third and fourth arms of three wells each exposed the cultured cells to 200 and 100 micrograms, respectively, of methotrexate.

[3] = system: patients, eyes with a wide variety of conditions including PVR; conditions: intravitreal, varying doses, cited from earlier work
[4] = one patient (studyid), follow up 4 to 39 months
[5] = one patient (studyid), intravitreal methotrexate 400 mcg/0.1 ml

## CN(Cc1cnc2nc(N)nc(N)c2n1)c1ccc(C(=O)N[C@@H](CCC(=O)O)C(=O)O)cc1 [methotrexate, N-[4-[[(2,4-diamino-6-pteridinyl)methyl]methylamino]benzoyl]-L-glutamic acid]
[1]; 10 patients
  Other subjects with reaccumulation of fluid under the retina requiring re-operation, no membranes: Two
[1]; 10 patients, three-month treatment protocol
  Development of PVR while receiving methotrexate: no subjects developed PVR
[1]; 10 patients, consistent with the use of silicone oil
  Subjects with a degree of conjunctival hyperemia: All subjects
[1]; 10 patients, median pre-operative visual acuity Hand Motions at 2 feet
  Median post-operative visual acuity: 20/200
[1]; all patients
  Visual acuity and intraocular pressure at last follow up visit compared with post-operative month 4: similar
[1]; follow up 4 to 39 months, median 25 months
  Significant adverse events: no significant adverse events were observed
[1]; one patient (studyid)
  Adverse events observed: Conjunctival hyperemia: 4 (2×) and 7 (3×) and 5 (3×) and 6 (2×)
  Adverse events observed: Elevated intraocular pressure: 0 (9×) and 1
  Adverse events observed: NLP: 0 (9×) and 1
  Adverse events observed: Superficial Punctate Keratopathy: 0 (9×) and 1
  Reoperations required: 1 (2×) and 0 (8×)
[1]; [4]
  IOP at last follow up: 16 (2×) and 9 (3×) and 22 and 14 (2×) and 12 and 15
  Visual acuity at last follow up: 20/300 and 20/200 and NLP and 20/70 and 20/150 and 20/500
[1]; [5]
  Detachments: Number of detachments due to PVR during study period: 0 (9×) and 0*
  Final IOP: 12 (3×) and 9 (2×) and 10 and 8 and 15 and 13 (2×)
[1]; one patient (studyid), intravitreal methotrexate 400 mcg/0.1 ml, up to 10 injections over 3 months
  Visual Acuity, Post-op month 4: 20/200 (4×) and 20/160 and 20/252 and NLP and 20/65 and 20/320
[1]; one patient, single examination, attributed to excessive steroid use
  Elevated intraocular pressure by Goldmann Tonometry: 44 mm Hg
[1]; single clinical exam, normal corneal surface one week later
  Patients with superficial punctuate keratopathy (SPK): one
[1]; trauma patient #4, at 3½ months postoperatively
  PVR after completion of the injection protocol: massive PVR two weeks after completion of the injection protocol
[2]; 100 μM, 200 μM, or 400 μM
  Proliferation of human PVR cells in culture: inhibited proliferation
[2]; 1 week
  Growth of PVR cells versus control: growth inhibition and lack of confluency
[2]; 2 weeks
  Growth of PVR cells versus control: inhibited growth and lack of confluency; also recorded: inhibition of cellular confluency continued
[3]; 5 patients
  Change in visual acuity for the group: no change in visual acuity
[3]; of 5 patients
  Number of patients with any improved vision: one

From patent US10828306B2, “Methotrexate for proliferative vitreoretinopathy” (Massachusetts Eye and Ear Infirmary, priority 2014, dated 2020)
